In patent publication US9663510B2, “Substituted triazolopyridines and their use as TTK inhibitors” (Bayer Intellectual Property GmbH, priority 2011, dated 2017):
Like-named read-outs stand apart in the source and are kept apart here.

Key:
[1] = test system: HeLa human cervical tumor cells; test: HeLa cell proliferation assay (crystal violet); assay type: cell-based; settings: 96 h, 4 days incubation, read-out: Inhibition of cell proliferation, cell Line: HeLa IC50
[2] = target: human kinase Mps-1 (Homo sapiens (Human), UniProt P33981); test: Mps-1 kinase assay (TR-FRET); assay type: biochemical
human kinase Mps-1, sequence (P33981 whole entry): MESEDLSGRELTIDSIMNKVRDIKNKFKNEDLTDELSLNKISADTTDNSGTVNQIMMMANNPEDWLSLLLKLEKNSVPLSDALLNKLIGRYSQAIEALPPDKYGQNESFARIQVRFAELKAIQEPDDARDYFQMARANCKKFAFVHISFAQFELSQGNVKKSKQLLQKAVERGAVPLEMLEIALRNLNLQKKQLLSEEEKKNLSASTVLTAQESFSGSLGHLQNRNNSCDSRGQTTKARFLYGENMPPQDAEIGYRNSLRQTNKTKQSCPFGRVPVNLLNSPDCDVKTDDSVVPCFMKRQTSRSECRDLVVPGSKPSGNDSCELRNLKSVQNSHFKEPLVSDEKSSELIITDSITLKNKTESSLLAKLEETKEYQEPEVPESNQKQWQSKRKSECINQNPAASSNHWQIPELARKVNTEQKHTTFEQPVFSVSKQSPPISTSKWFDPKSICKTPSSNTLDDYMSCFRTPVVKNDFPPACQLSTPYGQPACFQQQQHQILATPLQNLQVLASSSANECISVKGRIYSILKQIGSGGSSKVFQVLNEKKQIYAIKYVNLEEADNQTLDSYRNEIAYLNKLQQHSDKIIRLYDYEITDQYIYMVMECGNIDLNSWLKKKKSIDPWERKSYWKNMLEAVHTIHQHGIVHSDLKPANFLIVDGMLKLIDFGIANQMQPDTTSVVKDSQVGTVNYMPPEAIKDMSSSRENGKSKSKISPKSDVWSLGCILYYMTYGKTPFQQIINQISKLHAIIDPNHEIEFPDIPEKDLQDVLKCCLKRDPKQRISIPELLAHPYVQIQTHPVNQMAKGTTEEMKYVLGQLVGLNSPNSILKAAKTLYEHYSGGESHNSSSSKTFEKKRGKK

[3] = read-out: Mps-1 Inhibition, IC50 (Assay with 10 μM ATP), 10 μM ATP
[4] = read-out: Mps-1 Inhibition, IC50 (Assay with 2 mM ATP), 2 mM ATP

Structure (SMILES)	IC50 [1]	IC50 [2, 3]	IC50 [2, 4]	IC50 ([2]; 2 mM ATP)
COc1cc(C(=O)N2CC(F)C2)ccc1Nc1nc2ccc(-c3ccc(NC(=O)[C@H](N)c4ccc(F)cc4)cc3)cn2n1 [Example 01.21, (2R)-2-amino-N-{4-[2-({4-[(3-fluoroazetidin-1-yl)carbonyl]-2-methoxyphenyl}amino)[1,2,4]triazolo[1,5-a]pyridin-6-yl]phenyl}-2-(4-fluorophenyl)ethanamide]	< 200 nM	< 1 nM	< 1 nM	–
C[C@@H](C(=O)Nc1ccc(-c2ccc3nc(Nc4ccc(C(=O)N5CCCC5)cc4OCC(F)(F)F)nn3c2)cc1)c1ccc(F)cc1 [Example 01.16, (2R)-2-(4-fluorophenyl)-N-[4-(2-{[4-(pyrrolidin-1-ylcarbonyl)-2-(2,2,2-trifluoroethoxyl)phenyl]amino}[1,2,4]triazolo[1,5-a]pyridin-6-yl)phenyl]propanamide]	< 100 nM	< 1 nM	–	1.3 nM
COc1cc(S(C)(=O)=O)ccc1Nc1nc2ccc(-c3ccc(NC(=O)[C@H](CO)c4ccc(F)cc4)cc3)cn2n1 [Example 01.17, (2S)-2-(4-fluorophenyl)-3-hydroxy-N-[4-(2-{[2-methoxy-4-(methylsulfonyl)phenyl]amino}[1,2,4]triazolo[1,5-a]pyridin-6-yl)phenyl]propanamide]	< 600 nM	< 1 nM	–	4.8 nM
CS(=O)(=O)c1ccc(Nc2nc3ccc(-c4ccc(NC(=O)[C@H](N)c5ccc(F)cc5)cc4)cn3n2)c(OCC(F)(F)F)c1 [Example 01.19, (2R)-2-amino-2-(4-fluorophenyl)-N-[4-(2-{[4-(methylsulfonyl)-2-(2,2,2-trifluoroethoxyl)phenyl]amino}[1,2,4]triazolo[1,5-a]pyridin-6-yl)phenyl]ethanamide]	< 200 nM	< 1 nM	< 1 nM	–
N[C@@H](C(=O)Nc1ccc(-c2ccc3nc(Nc4ccc(C(=O)N5CC(F)C5)cc4OCC(F)(F)F)nn3c2)cc1)c1ccc(F)cc1 [Example 01.24, (2R)-2-amino-N-{4-[2-({4-[(3-fluoroazetidin-1-yl)carbonyl]-2-(2,2,2-trifluoroethoxyl)phenyl}amino)[1,2,4]triazolo[1,5-a]pyridin-6-yl]phenyl}-2-(4-fluorophenyl)ethanamide]	< 100 nM	< 1 nM	< 1 nM	–
C[C@@H](C(=O)Nc1ccc(-c2ccc3nc(Nc4ccc(C(=O)N5CC(O)C5)cc4OCC(F)(F)F)nn3c2)cc1)c1ccc(F)cc1 [Example01.15, (2R)-2-(4-fluorophenyl)-N-{4-[2-({4-[(3-hydroxyazetidin-1-yl)carbonyl]-2-(2,2,2-trifluoroethoxy)phenyl}amino)[1,2,4]triazolo[1,5-a]pyridin-6-yl]phenyl}propanamide]	< 100 nM	< 1 nM	< 1 nM	–
COc1cc(C(=O)N2CCC2)ccc1Nc1nc2ccc(-c3ccc(NC(=O)[C@H](N)c4ccc(F)cc4)cc3)cn2n1 [Example 01.22, (2R)-2-amino-N-[4-(2-{[4-(azetidin-1-ylcarbonyl)-2-methoxyphenyl]amino}[1,2,4]triazolo[1,5-a]pyridin-6-yl)phenyl]-2-(4-fluorophenyl)ethanamide]	< 200 nM	< 1 nM	< 1 nM	–
N[C@@H](C(=O)Nc1ccc(-c2ccc3nc(Nc4ccc(C(=O)N5CCCC5)cc4OCC(F)(F)F)nn3c2)cc1)c1ccc(F)cc1 [Example 01.25, (2R)-2-amino-2-(4-fluorophenyl)-N-[4-(2-{[4-(pyrrolidin-1-ylcarbonyl)-2-(2,2,2-trifluoroethoxyl)phenyl]amino}[1,2,4]triazolo[1,5-a]pyridin-6-yl)phenyl]ethanamide]	< 200 nM	< 1 nM	< 1 nM	–
COc1cc(N2CCOC2=O)ccc1Nc1nc2ccc(-c3ccc(NC(=O)[C@H](N)c4ccc(F)cc4)cc3)cn2n1 [Example 01.20, (2R)-2-amino-2-(4-fluorophenyl)-N-[4-(2-{[2-methoxy-4-(2-oxo-1,3-oxazolidin-3-yl)phenyl]amino}[1,2,4]triazolo[1,5-a]pyridin-6-yl)phenyl]ethanamide]	< 200 nM	< 1 nM	–	1.5 nM
COc1cc(C(=O)N(C)C)ccc1Nc1nc2ccc(-c3ccc(NC(=O)[C@H](C)c4ccc(F)cc4)cc3)cn2n1 [Example01.12, 4-{[6-(4-{[(2R)-2-(4-fluorophenyl)propanoyl]amino}phenyl)[1,2,4]triazolo[1,5-a]pyridin-2-yl]amino}-3-methoxy-N,N-dimethylbenzamide]	< 200 nM	< 1 nM	< 1 nM	–
COc1cc(C(=O)N2CCCC2)ccc1Nc1nc2ccc(-c3ccc(NC(=O)[C@H](N)c4ccc(F)cc4)cc3)cn2n1 [Example 01.23, (2R)-2-amino-2-(4-fluorophenyl)-N-[4-(2-{[2-methoxy-4-(pyrrolidin-1-ylcarbonyl)phenyl]amino}[1,2,4]triazolo[1,5-a]pyridin-6-yl)phenyl]ethanamide]	< 400 nM	< 1 nM	< 1 nM	–
O=C(Nc1ccc(-c2ccc3nc(Nc4ccc(C(=O)N5CC(F)C5)cc4OCC(F)(F)F)nn3c2)cc1)[C@H](CO)c1ccc(F)cc1 [Example 01.18, (2S)—N-{4-[2-({4-[(3-fluoroazetidin-1-yl)carbonyl]-2-(2,2,2-trifluoroethoxyl)phenyl}amino)[1,2,4]triazolo[1,5-a]pyridin-6-yl]phenyl}-2-(4-fluorophenyl)-3-hydroxypropanamide]	< 100 nM	< 1 nM	< 1 nM	–
C[C@@H](C(=O)Nc1ccc(-c2ccc3nc(Nc4ccc(C(=O)N5CC(F)C5)cc4OCC(F)(F)F)nn3c2)cc1)c1ccc(F)cc1 [Example01.14, (2R)—N-{4-[2-({4-[(3-fluoroazetidin-1-yl)carbonyl]-2-(2,2,2-trifluoroethoxy)phenyl}amino)[1,2,4]triazolo[1,5-a]pyridin-6-yl]phenyl}-2-(4-fluorophenyl)propanamide]	–	< 1 nM	< 1 nM	–
COc1cc(C(=O)N2CCCC2)ccc1Nc1nc2ccc(-c3ccc(NC(=O)[C@H](C)c4ccc(F)cc4)cc3)cn2n1 [Example01.13, (2R)-2-(4-fluorophenyl)-N-[4-(2-{[2-methoxy-4-(pyrrolidin-1-ylcarbonyl)phenyl]amino}[1,2,4]triazolo[1,5-a]pyridin-6-yl)phenyl]propanamide]	< 400 nM	< 1 nM	< 1 nM	–
